Target: T1, RcsB (Klebsiella pneumoniae, UniProt W1DMM9)
T1 construct: expressed and purified earlier in the laboratory
Assay: microscale thermophoresis (Monolith NT.[…])
Type: binding

T1 sequence (W1DMM9 entry or part of it): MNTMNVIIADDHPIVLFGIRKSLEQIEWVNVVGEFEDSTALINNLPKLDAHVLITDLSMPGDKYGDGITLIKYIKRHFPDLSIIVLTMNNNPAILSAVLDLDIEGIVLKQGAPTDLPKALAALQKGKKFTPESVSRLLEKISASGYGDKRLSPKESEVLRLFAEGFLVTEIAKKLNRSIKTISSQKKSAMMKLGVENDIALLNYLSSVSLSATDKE

## C=CCc1ccc(O)c(OC)c1 [eugenol]
  Kd: 53.4 µM

Source: paper PMC9315372, “Impact of Sub-MIC Eugenol on Klebsiella pneumoniae Biofilm Formation via Upregulation of rcsB” (Frontiers in Veterinary Science, 2022)
